Reference: patent EP2667887B1, “PHARMACEUTICAL COMPOSITION COMPRISING THE PEPTIDE GLU-ASP-GLY AND USE FOR TREATING HELICOBACTER PYLORI INDUCED GASTRODUODENAL DISEASES” («Garmonia», Ltd., priority 2011, dated 2012)

Test system: human gastric epithelium cells SGC7901
Assay: Effect on Helicobacter pylori-induced mitochondrial mechanisms of apoptosis in gastric epitheliocytes (mito-GFP confocal microscopy)
Assay type: cell-based
Details: peptide 10 µM 30 minutes before Helicobacter pylori (strain Cag J117), 7 hours
Method: To evaluate the biological activity and effects of peptide H-Glu-Asp-Gly-OH on mitochondrial mechanisms of apoptosis in gastric epitheliocytes, induced by Helicobacter pylori germs, human gastric epithelium cells SGC7901 were studied. The cells were cultivated at 37°C in a damp incubation medium containing 50 mL/L CO2 in DMEM (Dulbecco's Modified Eagle's Medium, ICN Biomedicals) and 10% calf embryonic serum. A preliminary separation of cells for passaging was carried out in the ratio of 1:3-1:5 using a mixture of 0.125% trypsin, 0.02M EDTA (ethylenediaminetetraacetic acid), 0.02% glucose dissolved in a phosphate buffer. The cells were placed on a 24-well plate in the amount of 10^6 cells per well. The cells were passaged in a cultivation medium for 5 days and then taken for study.
On the 5th day after the beginning of cell passaging the peptide H-Glu-Asp-Gly-OH in the dose of 10 µM was administered in the cultivation medium, and in 30 minutes of incubation the cells were taken for study. Klacid antibiotic (clarithromycin, Abbott) in the dose of 500 ng/mL was administered to the cultures in the same conditions as positive control. […]
The status of isolated mitochondria was evaluated using immunofluorescent confocal laser microscopy. […]
Confocal microscopy of mitochondria with optical density evaluation was performed in an inverted confocal microscope Olympus Fluoview CM FV300-IX70 using an apochromatic lens 606 UPlan (Olympus). A 488 nm excitation wave of argon laser was used in each chamber to specify mito-GFP fluorescence that verifies the structure of mitochondria.

glutamyl-aspartyl-glycine [H-Glu-Asp-Gly-OH]
mitochondrial GFP expression by optical density (control 2.57±0.23, H. pylori alone 0.35±0.05): 2.48±0.17 conv. units | mitochondrial GFP expression by expression area (control 3.42±0.19, H. pylori alone 0.63±0.03): 3.84±0.20%
